Results reported in US7947718B2, “Isoxazole compounds as histamine H3 modulators” (Janssen Pharmaceutica NV, priority 2004, dated 2011).

These compounds were tested against T1, human histamine H3 receptor (Homo sapiens, UniProt Q9Y5N1) (assay: [3H]-N-Methylhistamine binding). Settings: membranes of H3 receptor-expressing SK-N-MC cells; 0.8 nM [3H]-N-methylhistamine, 60 min at 25° C.
T1 construct: expressed in transfected cells; membranes were used
Experimental: Cells were grown to about 70% to 80% confluence and removed from the plate with trypsin and pelleted in a clinical centrifuge. […] One μg supercoiled H3 receptor cDNA was added to the cells and mixed gently. The voltage for the electroporation was set at 0.25 kV and the capacitance was set at 960 μF. After electroporation the cells were diluted with 10 mL of complete media and were plated onto four 10 cm dishes at the following ratios: 1:20, 1:10, 1:5, and 1:2. […] Colonies that survived selection were grown and tested. SK-N-MC cells were used because they give efficient coupling for inhibition of adenylate cyclase. The clones that gave the most robust inhibition of adenylate cyclase in response to histamine were used for further study.
Cell pellets from histamine H3 receptor-expressing SK-N-MC cells were homogenized in 50 mM TrisHCl/0.5 mM EDTA. Supernatants from an 800 g spin were collected and were recentrifuged at 30,000 g for 30 min. Pellets were re-homogenized in 50 mM Tris/5 mM EDTA (pH 7.4). Membranes were incubated with 0.8 nM [^3H]-N-methylhistamine plus/minus test compounds for 60 min at 25° C. and were harvested by rapid filtration over GF/C glass fiber filters (pretreated with 0.3% polyethylenimine) followed by four washes with buffer. Filters were added to 5 mL of scintillation cocktail, and the signal was then counted on a liquid scintillation counter.

T1 sequence (Q9Y5N1 whole entry): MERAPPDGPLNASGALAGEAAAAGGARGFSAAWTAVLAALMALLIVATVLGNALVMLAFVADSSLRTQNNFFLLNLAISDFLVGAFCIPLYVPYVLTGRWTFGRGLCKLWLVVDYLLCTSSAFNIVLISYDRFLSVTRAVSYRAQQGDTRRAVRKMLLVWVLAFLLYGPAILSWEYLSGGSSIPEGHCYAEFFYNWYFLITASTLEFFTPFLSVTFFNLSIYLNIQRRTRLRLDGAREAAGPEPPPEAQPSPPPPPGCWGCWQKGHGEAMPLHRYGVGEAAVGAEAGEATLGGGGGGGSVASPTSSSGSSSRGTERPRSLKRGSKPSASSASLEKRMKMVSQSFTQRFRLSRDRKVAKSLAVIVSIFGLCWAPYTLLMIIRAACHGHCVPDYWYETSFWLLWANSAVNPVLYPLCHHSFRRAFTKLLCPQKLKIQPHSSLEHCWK

Compound | Ki [nM]
C(#Cc1ccc(CN2CCCCC2)cn1)CCN1CCCCC1 [Example 8, 2-(4-Piperidin-1-yl-but-1-ynyl)-5-piperidin-1-ylmethyl-pyridine] | 5
CC(C)N1CCN(C(=O)c2ccc(NCCN3CCCCC3)nc2)CC1 [Example 9, (4-Isopropyl-piperazin-1-yl)-[6-(2-piperidin-1-yl-ethylamino)-pyridin-3-yl]-methanone] | 2
CC(C)N1CCN(C(=O)c2ccc(NCCN3CCOCC3)nc2)CC1 [Example 10, (4-Isopropyl-piperazin-1-yl)-[6-(2-morpholin-4-yl-ethylamino)-pyridin-3-yl]-methanone] | 14
CC(C)N1CCN(C(=O)c2ccc(NCCc3ccccn3)nc2)CC1 [Example 11, (4-Isopropyl-piperazin-1-yl)-[6-(2-pyridin-2-yl-ethylamino)-pyridin-3-yl]-methanone] | 84
CCN(CC)CCN(C)c1ccc(C(=O)N2CCN(C(C)C)CC2)cn1 [Example 12, {6-[(2-Diethylamino-ethyl)-methyl-amino]-pyridin-3-yl}-(4-isopropyl-piperazin-1-yl)-methanone] | 3
CC(C)N1CCN(C(=O)c2ccc(N3CCN(C(C)C)CC3)nc2)CC1 [Example 13, (4-Isopropyl-piperazin-1-yl)-[6-(4-isopropyl-piperazin-1-yl)-pyridin-3-yl]-methanone] | 4
CCOC(=O)N1CCN(c2ccc(C(=O)N3CCN(C(C)C)CC3)cn2)CC1 [Example 14, 4-[5-(4-Isopropyl-piperazine-1-carbonyl)-pyridin-2-yl]-piperazine-1-carboxylic acid ethyl ester] | 79
CC(C)N1CCN(C(=O)c2ccc(N3CCN(C)CC3)nc2)CC1 [Example 15, (4-Isopropyl-piperazin-1-yl)-[6-(4-methyl-piperazin-1-yl)-pyridin-3-yl]-methanone] | 3
CC(C)N1CCN(C(=O)c2ccnc(NCCN3CCCCC3)c2)CC1 [Example 16, (4-Isopropyl-piperazin-1-yl)-[2-(2-piperidin-1-yl-ethylamino)-pyridin-4-yl]-methanone] | 6
CC(C)N1CCN(C(=O)c2cccnc2NCCN2CCCCC2)CC1 [Example 17, (4-Isopropyl-piperazin-1-yl)-[2-(2-piperidin-1-yl-ethylamino)-pyridin-3-yl]-methanone] | 141
C(#Cc1cncc(CN2CCCCC2)c1)CCN1CCCCC1 [Example 18, 3-(4-Piperidin-1-yl-but-1-ynyl)-5-piperidin-1-ylmethyl-pyridine] | 2
C(#Cc1cncc(CN2CCOCC2)c1)CCN1CCCCC1 [Example 19, 4-[5-(4-Piperidin-1-yl-but-1-ynyl)-pyridin-3-ylmethyl]-morpholine] | 15
C(#Cc1cccc(CN2CCCCC2)n1)CCN1CCCCC1 [Example 20, 2-(4-Piperidin-1-yl-but-1-ynyl)-6-piperidin-1-ylmethyl-pyridine] | 8
C(#Cc1cccc(CN2CCOCC2)n1)CCN1CCCCC1 [Example 21, 4-[6-(4-Piperidin-1-yl-but-1-ynyl)-pyridin-2-ylmethyl]-morpholine] | 38
COCCNCc1cccc(C#CCCN2CCCCC2)n1 [Example 22, (2-Methoxy-ethyl)-[6-(4-piperidin-1-yl-but-1-ynyl)-pyridin-2-ylmethyl]-amine] | 29
